Assay results reported in patent US11980648B2, “Compositions including ginsenoside 20(S)-Rg3 and methods of using ginsenoside 20(S)-Rg3 to inhibit alpha herpesvirus” (MIDDLE TENNESSEE STATE UNIVERSITY, priority 2020, dated 2024).

Experiments:
HSV-1 [1] = assay: Virus inhibition, HSV-1 on Vero cells (PrestoBlue); assay type: cell-based, herpes simplex virus type 1 (MacIntyre strain)
Protocol: (§1) Viruses and Quantification. Herpes simplex virus type 1 (HSV-1, MacIntyre strain, ATCC, VR-539) or herpes simplex virus type 2 (HSV-2, ATCC, VR-734) were used in these studies. Virus titer was determined by plaque assay. Briefly, following 2 hour-adsorption of various virus dilutions onto a Vero cell monolayer in a 24-well plate, the medium was removed and cells were overlaid with 1.5% carboxymethylcellulose (Sigma Chemical Company, St. Louis, Mo.) and incubated 48 hours at 37° C. with 5% CO2. After incubation, cells were fixed with methanol, stained with Giemsa (Sigma Chemical Company, St. Louis, Mo.) and plaques were counted. Each virus dilution was prepared in quadruplicate.
(§2) Cytotoxicity and Virus Inhibition. All ginsenosides, isomers, and protopanaxadiols were evaluated for toxic effects on Vero cells prior to anti-viral testing. Cells were seeded at 5000 cells/well in a black 96-well plate with clear bottom in a volume of 100 μL and allowed to attach for 24 hours. The P. ginseng compounds were prepared in DMSO at 100 μM and were taken through serial two-fold dilutions to determine the concentration when the rate of cell death was less than 10% compared to control, untreated cells. Each dilution was tested in three wells and all assays were repeated three times. Following a 48 hour-incubation at 37° C. in 5% CO2, 11 μL of PrestoBlue (Invitrogen, Carlsbad, Calif.) was added to each well and the plate was incubated for an additional 30 minutes. PrestoBlue determines cell viability by changing from blue to red as resazurin is reduced to resorufin by viable cells. Following the PrestoBlue incubation, fluorescence was determined by spectrophotometric reading using Soft Max Pro (Molecular Diagnostics, San Jose, Calif., USA).
(§3) For cytotoxicity testing, 4 μL of dilutions of the ginsenosides or protopanaxadiols were added to 396 μL of medium 199 and 100 μL of this mixture was added to each of three wells. For anti-viral testing, 4 μL of the non-toxic reagent and 4 μL of HSV-1 or HSV-2 diluted to an MOI of 0.1 were added to 392 μL of medium 199 and 100 μL of this mixture was added to each of three wells. Virus inhibition was determined by comparing the cell death of reagent-exposed cells with cell death of control cells only receiving virus. The 50% inhibitory concentration (IC50) was determined through a series of two-fold dilutions and calculation by linear regression analysis.

HSV-2 = assay: Virus inhibition, HSV-2 on Vero cells (PrestoBlue); assay type: cell-based, herpes simplex virus type 2
Protocol: as §1, §2, §3

HSV-1 [2] = assay: Plaque reduction of HSV-1 on Vero cell monolayer; assay type: cell-based, herpes simplex virus type 1 (MacIntyre strain); conditions: valacyclovir 16 μM, 20(S)-Rg3 50 μM, about 50 PFU/well, 48 hours; for Number of Plaques: ± standard error
Protocol: as §1
The plaque assay procedure also was used to evaluate the percent plaque reduction; the only procedural change was that a constant virus concentration was used (50 plaque forming units (PFU)/well). Plaque reduction was measured by comparing the control (virus only), with valacyclovir (16 μM) with virus or 20(S)-Rg3 (50 μM) with virus. Sample wells were evaluated in quadruplicate. Following the 2 hour-virus adsorption, the methylcellulose-medium containing the same concentrations of valacyclovir or Rg3 was added to the appropriate wells. After 48 hours, plaques were fixed, stained and counted.

HSV-1 [3] = assay: Time studies of HSV-1 inhibition (PrestoBlue); assay type: cell-based, herpes simplex virus type 1; conditions: Rg3 50 μM
Protocol: Time Studies. For virus inhibition studies described above, reagent 20(S)-Rg3 and virus were added to cells simultaneously. To evaluate the potential mode of action of Rg3, various combinations of valacyclovir, Rg3 and HSV-1 were tested at different time periods. The following combinations were evaluated at both one hour and four hours: • Virus applied to cells first (for one hour or four hours), followed by addition of valacyclovir, Rg3 or both valacyclovir and Rg3 to the cells; • Valacyclovir or Rg3 or both valacyclovir and Rg3 applied to cells first (for one or four hours), followed by virus; • Valacyclovir or Rg3 incubated together with virus first for one or four hours then added to cells.
All procedures described for evaluation of virus inhibition were followed in identical fashion as outlined for the PrestoBlue procedure except valacyclovir was used at a constant concentration of 16 μM and 20(S)-Rg3 at 50 μM.

HSV-1 [4] = assay: Mouse susceptibility study, lethal HSV-1 infection; assay type: in vivo, BALB/c mice; conditions: for mortality: BALB/c mice, lethal dose HSV-1
Protocol: Mouse Susceptibility Study. BALB/c mice and the HSV-1, MacIntyre strain, ATCC VR-539, were used to determine the effectiveness of the 20(S)-Rg3 ginsenoside in preventing mortality in mice caused by infection of HSV-1. On day 1 of the study, four groups consisting of four mice each were injected intraperitoneally with 800,000 PFU of HSV-1, MacIntyre strain, ATCC VR-539. Three of the groups were treated daily with 1 mg/kg, 3 mg/kg, or 10 mg/kg intraperitoneal injections of the 20(S)-Rg3 ginsenoside and one group in the study received no treatment.

normal WI 38 cells = conditions: 120 μM; cited from earlier work

CC(C)=CCC[C@](C)(O)C1CC[C@]2(C)C1[C@H](O)CC1[C@@]3(C)CC[C@H](O[C@@H]4OC(CO)[C@@H](O)[C@@H](O)C4O[C@@H]4OC(CO)[C@@H](O)[C@@H](O)C4O)C(C)(C)C3CC[C@]12C (stereo partly drawn) [20(S)-Rg3, 20(S)-ginsenoside-Rg3]
Percent Inhibition of HSV-1 (HSV-1 [1]; 50 μM, ± standard error): 82.3 ± 3.5% | Percent Inhibition of HSV-1 (HSV-1 [1]; 100 μM, ± standard error): nearly completely inhibited | inhibition at 25 µM (HSV-1 [1]; Human alphaherpesvirus 1, Vero, 25 μM, ± standard error, read-out: Percent Inhibition of HSV-1): 11 ± 2.6% | inhibition at 50 µM (HSV-1 [1]; Human alphaherpesvirus 1, Vero, 50 μM, ± standard error, read-out: Percent Inhibition of HSV-1): 80% | inhibition at 100 µM (HSV-1 [1]; Human alphaherpesvirus 1, Vero, 100 μM, ± standard error, read-out: Percent Inhibition of HSV-1): 90.3 ± 9.9% | IC50 (HSV-1 [1]; Human alphaherpesvirus 1, Vero, two-fold dilutions, linear regression, read-out: IC50 against HSV-1): ~35 µM | Percent Inhibition of HSV-2 (HSV-2; 50 μM, ± standard error): 81.7 ± 10.3% | Percent Inhibition of HSV-2 (HSV-2; 100 μM, ± standard error): nearly completely inhibited | inhibition at 25 µM (HSV-2; Human alphaherpesvirus 2, Vero, 25 μM, ± standard error, read-out: Percent Inhibition of HSV-2): 14.3 ± 3.3% | inhibition at 50 µM (HSV-2; Human alphaherpesvirus 2, Vero, 50 μM, ± standard error, read-out: Percent Inhibition of HSV-2): 80% | inhibition at 100 µM (HSV-2; Human alphaherpesvirus 2, Vero, 100 μM, ± standard error, read-out: Percent Inhibition of HSV-2): 115 ± 6.7% | IC50 (HSV-2; Human alphaherpesvirus 2, Vero, two-fold dilutions, linear regression, read-out: IC50 against HSV-2): ~35 µM | Percent Reduction of plaques compared to the control (HSV-1 [2]): 97.3% | Number of Plaques (HSV-1 [2]): 1.5 ± 0.3 | Number of Plaques (HSV-1 [2]; listed as Rg3): 1.5±0.3 | Percent Inhibition of HSV-1 (HSV-1 [3]; HSV-1 incubated with compound(s) 4 hours prior to addition to cells, valacyclovir 16 μM): over 110% | Percent Inhibition of HSV-1 (HSV-1 [3]; HSV-1 incubated with compound(s) 4 hours prior to addition to cells, valacyclovir 16 μM, listed as Rg3): 113.7±14.8% | Percent Inhibition of HSV-1 (HSV-1 [3]; cells pretreated with compound 4 hours prior to HSV-1 addition): 90.1±11.1% | Percent Inhibition of HSV-1 (HSV-1 [3]; virus present on cells 4 hours prior to compound addition): 50.7±4.4% | mortality (HSV-1 [4]; 1 mg/kg daily intraperitoneal): 0% | mortality (HSV-1 [4]; 3 mg/kg daily intraperitoneal): 0% | mortality (HSV-1 [4]; 10 mg/kg daily intraperitoneal): 0% | signs of stress (HSV-1 [4]; daily 1 mg/kg, 3 mg/kg or 10 mg/kg groups, duration of the study): never showed any signs of stress | effect on normal WI 38 cells (normal WI 38 cells): no effect
